“Also recorded” adds a separate entry of the source. Marks after values point to notes of the source that are not given here. One block for each compound: values may come before it.
Columns and labels:
[1] = system: dehydrogenase domain of csNOX5; assay: NADPH depletion assay on csNOX5 dehydrogenase domain; format: biochemical, Cylindrospermum stagnale; details: 100 μM inhibitor; 1 μM purified protein, 250 μM NADPH
NOX2 = NOX2 (Homo sapiens, UniProt P04839); set-up: NOX2 was expressed as native protein in X-CGD PLB-985 cells transduced with the RD114 pseudotyped MFGS-NOX2 vector; expressed in transfected cells; host or cells: X-CGD PLB-985 cells transduced with MFGS-NOX2; isolated membranes; Cytosolic proteins made in E. coli; details: cited from earlier work
NOX1 = details: cited from earlier work
NOX4 = details: cited from earlier work
NOX5 = details: cited from earlier work
monocytic U937 = system: monocytic U937; set-up: method as in PMID 37884805; details: cited from earlier work
human MAOB = target: T1, human MAOB (Homo sapiens, UniProt P27338); assay: Purified MAOB, Amplex Red/horseradish peroxidase coupled assay; format: biochemical; details: 10 nM MAOB, 1 mM benzylamine
T1 construct: made in house; host or cells: Pichia pastoris
T1 sequence (P27338 1-520): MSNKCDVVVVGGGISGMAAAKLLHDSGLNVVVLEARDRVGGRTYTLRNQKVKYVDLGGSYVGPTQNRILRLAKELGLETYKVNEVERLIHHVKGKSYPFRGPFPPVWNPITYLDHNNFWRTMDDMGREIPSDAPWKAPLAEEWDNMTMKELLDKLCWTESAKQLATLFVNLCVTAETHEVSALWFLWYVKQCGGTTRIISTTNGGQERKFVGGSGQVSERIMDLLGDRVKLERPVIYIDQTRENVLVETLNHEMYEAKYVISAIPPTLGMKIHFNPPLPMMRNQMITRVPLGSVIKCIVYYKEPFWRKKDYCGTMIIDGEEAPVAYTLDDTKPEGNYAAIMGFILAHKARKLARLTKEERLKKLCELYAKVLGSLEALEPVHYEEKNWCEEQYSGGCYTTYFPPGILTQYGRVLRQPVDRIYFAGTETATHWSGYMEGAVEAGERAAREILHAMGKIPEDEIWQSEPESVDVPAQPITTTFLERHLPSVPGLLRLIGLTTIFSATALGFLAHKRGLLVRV
Experimental: (§1) IC50 values on human MAOA and human MAOB were determined using the Amplex Red/horseradish peroxidase coupled assay. […] Measurements were performed using a ClarioStar plate reader (excitation 572 nm and emission 583 nm) (BMG Labtech). IC50 values were obtained by fitting the percentage of inhibition versus log(inhibitor concentration) using GraphPad software 7.0. The covalent modification of the flavin upon the reaction with the propargylamine-containing inhibitors was monitored spectrophotometrically using a diode array UV/visible spectrophotometer (Agilent Technologies). […] The cofactor covalent modification was monitored over time following the shift of the enzyme-bound flavin (peaks at 370 and 456 nm) to 410 nm (ε410 = 23,500 M^–1 cm^–1) (Figure S10).

BV2 cells [2] = assay: qRT-PCR of iNOS, IL-1β and IL-6 transcripts in BV2 cells; format: cell-based, murine; details: cells pre-stimulated with LPS/IFN-γ for 24h, then 10 µM compound for 24 h
Experimental: BV2 murine microglial cells were cultured in DMEM supplemented with 10% heat-inactivated FBS, 100 IU/mL penicillin G, […] streptomycin, and […] amphotericin B and grown at 37 °C in 5% CO2 and a humidified atmosphere. […]
BV2 cells were lysed in a Trizol reagent for isolation of RNA. A reverse transcription reaction was performed in a thermocycler (MJMini personal thermal cycler; Biorad) using an IScript Reverse Transcription Supermix (Biorad) according to the manufacturer’s protocol, under the following conditions: incubation at 25 ° C for 5 min, reverse transcription at 42 ° C for 30 min, and inactivation at 85 ° C for 5 min. Real-time PCR (rtPCR) was carried out in an I-Cycler IQ Multicolor rtPCR detection system (Biorad) using a SsoFast EvaGreen Supermix (Biorad) according to the manufacturer’s instructions. The PCR protocol consisted of 40 cycles of denaturation at 95 ° C for 30 s and annealing/extension at 60 ° C for 30 s. For quantification analysis, the comparative threshold cycle (Ct) method was used. The Ct values from each gene were normalized to the Ct value of GAPDH in the same RNA samples. Relative quantification was performed using the 2^–ΔΔCt method (Schmittgen and Livak, 2008) and expressed as a fold change in arbitrary values. Primers used are as follows: • iNOS fw: […]; rev: […]. • IL-1β fw: […]; rev: […]. • IL-6 fw: […]; rev: […].

human MAOA = target: T2, human MAOA (Homo sapiens, UniProt P21397); assay: Purified MAOA, Amplex Red/horseradish peroxidase coupled assay; format: biochemical; details: 70 nM MAOA, 1 mM kynuramine
T2 construct: made in house; host or cells: Pichia pastoris
T2 sequence (P21397 1-527): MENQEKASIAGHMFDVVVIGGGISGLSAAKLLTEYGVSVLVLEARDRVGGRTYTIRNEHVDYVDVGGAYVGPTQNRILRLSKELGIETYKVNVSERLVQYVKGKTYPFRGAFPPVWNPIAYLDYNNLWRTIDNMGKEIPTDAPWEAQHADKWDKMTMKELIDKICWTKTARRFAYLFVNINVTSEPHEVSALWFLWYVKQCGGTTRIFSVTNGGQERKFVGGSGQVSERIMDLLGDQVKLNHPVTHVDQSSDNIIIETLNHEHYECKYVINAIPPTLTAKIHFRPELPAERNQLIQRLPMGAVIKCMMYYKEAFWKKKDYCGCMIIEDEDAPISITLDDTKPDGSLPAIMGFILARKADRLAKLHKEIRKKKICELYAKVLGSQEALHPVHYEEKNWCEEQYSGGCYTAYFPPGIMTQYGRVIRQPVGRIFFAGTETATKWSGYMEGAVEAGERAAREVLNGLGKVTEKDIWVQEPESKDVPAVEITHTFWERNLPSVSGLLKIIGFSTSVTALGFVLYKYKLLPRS
Experimental: as §1

BV2 cells [3] = assay: ROS detection with CellROX Deep Red in BV2 cells; format: cell-based, murine; details: 10 μM, LPS/IFN-γ stimulation, 48 h
Experimental: BV2 murine microglial cells were cultured in DMEM supplemented with 10% heat-inactivated FBS, 100 IU/mL penicillin G, […] streptomycin, and […] amphotericin B and grown at 37 °C in 5% CO2 and a humidified atmosphere. […] After 30 min, LPS 100 ng/mL and IFN-γ 20 ng/mL were added to the medium for an additional 48 h. After treatment, BV2 cells were incubated with a CellROX Deep Red reagent (cat. no. C10422) at 5 μM and incubated for 30 min at 37 °C as indicated by the manufacturer protocol. ROS levels were measured by a spectrofluorometer, taking as 100% the median fluorescence intensity of cells treated with the vehicle.

BV2 cells [4] = assay: MTT viability assay in BV2 cells; format: cell-based, murine; details: 10 μM, LPS/IFN-γ stimulation, 48 h
Purified MAOA = details: read-out: IC50 Purified MAOA; cited from earlier work
Purified MAOB = details: read-out: IC50 Purified MAOB; cited from earlier work

% INHIBITION csNOX5 DEHYDROGENASE DOMAIN [1]: 23.4 ± 4.8^b %
SMILES: Clc1ncnc2c1nnn2Cc1ccccc1 [Compound 3, 3-Benzyl-7-chloro-3H-[1,2,3]triazolo[4,5-d]pyrimidine]

SMILES: c1ccc(Cn2nnc3c(Sc4ncco4)ncnc32)cc1 [VAS3947]
IC50 (NOX2): 5.6 µM | IC50 (NOX1): 86.8 µM | IC50 (NOX4): 30.5 µM | IC50 (NOX5): 39.2 µM

SMILES: c1ccc(-c2cc(NC3CCNCC3)nc3ccccc23)cc1 [MC4876]
viability of monocytic U937 and other myeloid cancer lines (monocytic U937): reduced the viability

SMILES: O=C1c2ccccc2-c2cc(N3CCC4(CC3)OCCO4)nc3cccc1c23 [Compound M41]
viability of monocytic U937 and other myeloid cancer lines (monocytic U937): reduced the viability

IC50 (human MAOB): > 100 µM | IC50 Purified MAOB (human MAOB): ineffective; also recorded: Not detected | IC50 (human MAOA): > 100 µM | IC50 Purified MAOA (human MAOA): ineffective; also recorded: Not detected
SMILES: c1ccc(Cn2nnc3c(Sc4nc5ccccc5o4)ncnc32)cc1 [VAS2870, 3-benzyl-7-(2-benzoxazolyl)thio-1,2,3-triazolo[4,5-d]pyrimidine, reference compound]
effects on iNOS, IL-1β and IL-6 mRNA without inhibitor pretreatment (BV2 cells [2]): negligible | ROS levels in BV2 cells (BV2 cells [3]): decrease the ROS levels

SMILES: C#CCN[C@@H]1CCc2ccccc21 [Rasagiline, reference compound]
BV2 cell viability (BV2 cells [4]): negligible effects on cells viability | IC50 (Purified MAOA): 0.7 µM | ROS levels in BV2 cells (BV2 cells [3]): decrease the ROS levels | IC50 (Purified MAOB): 0.014 µM
